Experimental data as given in publication PMC8703317, “2-(Piperidin-4-yl)acetamides as Potent Inhibitors of Soluble Epoxide Hydrolase with Anti-Inflammatory Activity” (Pharmaceuticals, 2021).
pIC50: −log10 of the molar value.

Legend:
[1] = set-up: method as in PMID 33945278; details: 60 min incubation with human microsomes, NADPH, 37 °C; cited from earlier work
[2] = set-up: method as in PMID 33945278; details: 60 min incubation with mouse microsomes, NADPH, 37 °C; cited from earlier work
murine sEH = target: T1, murine sEH (Mus musculus, UniProt P34914); test: fluorescent-based sEH inhibition assay, recombinant mouse sEH; type: biochemical; details: baculovirus expressed recombinant mouse sEH, average of three replicates
T1 construct: made in house; host or cells: baculovirus expression system (insect cells implied)
T1 sequence (P34914 1-554): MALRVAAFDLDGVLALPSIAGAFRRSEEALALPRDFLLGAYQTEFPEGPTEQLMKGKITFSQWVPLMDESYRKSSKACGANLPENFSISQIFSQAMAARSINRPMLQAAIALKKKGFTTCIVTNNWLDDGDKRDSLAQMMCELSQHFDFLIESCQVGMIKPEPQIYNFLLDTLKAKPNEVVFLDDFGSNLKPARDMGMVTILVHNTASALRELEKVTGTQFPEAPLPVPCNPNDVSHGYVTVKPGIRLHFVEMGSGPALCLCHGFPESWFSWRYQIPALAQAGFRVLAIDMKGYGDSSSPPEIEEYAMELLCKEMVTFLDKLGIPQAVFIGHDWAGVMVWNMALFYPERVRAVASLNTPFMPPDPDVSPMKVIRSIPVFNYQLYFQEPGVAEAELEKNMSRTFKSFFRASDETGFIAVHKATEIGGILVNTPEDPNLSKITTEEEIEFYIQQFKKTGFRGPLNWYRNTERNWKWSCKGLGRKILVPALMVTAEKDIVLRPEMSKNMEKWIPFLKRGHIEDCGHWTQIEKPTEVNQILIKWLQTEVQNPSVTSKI
Experimental: The potency of all the new compounds as inhibitors of the human and murine sEH was tested using a previously reported sensitive fluorescent-based assay using baculovirus expressed recombinant human and mouse sEH [28].

[3] = microsomal stability, human microsomes; type: in vitro ADME; details: pooled human microsomes, pH 7.4; 60 min incubation with human microsomes, NADPH, 37 °C
Experimental: (§1) The human and murine pooled microsomes employed were purchased from Tebu-Xenotech (Barcelona, Spain). The compound was incubated at 37 °C with the microsomes in a 50 mM phosphate buffer (pH = 7.4) containing 3 mM MgCl2, 1 mM NADP, 10 mM glucose-6-phosphate and 1 U/mL glucose-6-phosphate-dehydrogenase. Samples (75 µL) were taken from each well at 0, 10, 20, 40 and 60 min and transferred to a plate containing 4 °C 75 µL acetonitrile and 30 µL of 0.5% formic acid in water were added for improving the chromatographic conditions. The plate was centrifuged (46000 g, 30 min) and supernatants were taken and analyzed in a UPLC-MS/MS (Xevo-TQD, Waters) by employing a BEH C18 column and an isocratic gradient of 0.1% formic acid in water: 0.1% formic acid acetonitrile (60:40). The metabolic stability of the compounds was calculated from the logarithm of the remaining compounds at each of the time points studied.

[4] = microsomal stability, mouse microsomes; type: in vitro ADME; details: pooled murine microsomes, pH 7.4; 60 min incubation with mouse microsomes, NADPH, 37 °C
Experimental: as §1

[5] = tested on: SH-SY5Y neuroblastoma cells; test: cytotoxicity by propidium iodide staining in SH-SY5Y cells; type: cell-based; details: 24 h incubation, up to 100 µM (highest concentration tested), vehicle DMSO 0.1%, n = 10–12
Experimental: Cytotoxicity was evaluated in the human neuroblastoma SH-SY5Y cell line (ATCC Number: CRL-2266). Cells were cultured in minimum essential medium/HAM’s-F12 (1:1, v/v) medium, supplemented with non-essential amino acids, L-glutamine 1 mM, gentamycin 50 µM and 10% heat inactivated fetal bovine serum (FBS). For experiments, the cells were seeded at 3 × 10^5 cells/mL (100 µL/well) in 96-well plates. […] DMSO 0.1% was used as vehicle. Treated cultures were returned to the incubator for a 24 h test exposure. One hour before termination, cell death was measured by PI staining. Briefly, PI (Molecular Probes) at the final concentration of 7.5 µg/mL was added to the cells and incubated for 1 h. PI enters into cells with damaged membrane and binds to DNA yielding intense red fluorescence. Fluorescence was measured in a SAFAS FLX-Xenius microplate reader (Monaco) at 530 nm excitation and 645 nm emission. Percentage of cell death for a given fluorescence value (Ft) was calculated according to the values given by Triton X100 killed cells (Fmax; 100% cell death) and vehicle treated cells (Fmin; 0% cell death) [% = ((Ft-Fmin)/(Fmax-Fmin)) × 100]. Each treatment was assayed in 3–4 wells per experiment and the experiment was repeated 3 times in cultures of different cell passages. Data were analyzed by ANOVA.

[6] = tested on: microglial BV2 cells activated with LPS; test: nitric oxide generation (nitrite, Griess) in LPS-activated BV2 microglial cells; type: cell-based; details: LPS 0.1 or 1 μg/mL, 24 h
Experimental: Inflammatory changes were determined by the measure of nitric oxide generation, as the endpoint of iNOS activation, in microglial BV2 cells. BV2 cells (HyperCLDB, Banca Biologica e Cell Factory, ICLC ATL 03001) were grown in RPMI 1640 medium, supplemented with L-glutamine 2 mM, gentamycin 50 µM and 10% FBS. For experiments, cells were seeded in 96-well plates at 2 × 10^5 cells/mL, 100 µL/well. […] After 1 h of incubation, the cells were treated with the pro-inflammatory chemical LPS (0.1 μg/mL or 1 μg/mL; strain E. coli […], Sigma-Aldrich, L-2654, batch #120M4028) and further incubated for 24 h. TPPU at 100 µM was also assayed as a reference anti-inflammatory compound. DMSO 0.1% was used as vehicle. Cells were maintained at 37 °C in a humidified incubator with 5% CO2 throughout the procedures. Nitric oxide released to the culture medium was measured by the colorimetric Griess reaction that detects nitrite (NO2^–), a stable reaction product of nitric oxide and molecular oxygen. Briefly, 50 µL of conditioned medium were incubated with 50 µL of Griess reagent for 10 min at room temperature. Optical density was measured at 540 nm. Nitrite concentration was determined from a sodium nitrite standard curve. Results were normalized by cell protein content in the well and expressed as a percentage of the average maximal values given by the pro-inflammatory agent (LPS 1 µg/mL). Each treatment was performed in 3–5 wells and the whole experiment was repeated 3–4 times in cultures of different cell passage. Data were analyzed by ANOVA followed by Tukey’s multiple comparisons test.

SMILES | Microsomal Stability Human % Remaining at 1 h [1] | Microsomal Stability Mouse % Remaining at 1 h [2] | pIC50 (murine sEH) | remaining at 1 h [3] | remaining at 1 h [4] | cytotoxicity, percentage of cell death (PI staining) [5] | nitric oxide generation (nitrite levels) in presence of LPS ([6]; compound at 50 µM) | nitric oxide generation (nitrite levels) in presence of LPS ([6]; compound at 100 µM)
O=C(NC12CC3CC(Cl)(CC(C1)c1ccccc13)C2)N[C@H]1CC[C@H](Oc2ccc(C(=O)O)cc2)CC1 [11c] | 89% | 60% | – | – | – | – | – | –
O=C(CC1CCN(c2ccc(C(=O)O)cc2)CC1)NC12CC3CC(F)(CC(C1)c1ccccc13)C2 [10c, 4-(4-(2-((9-Fluoro-5,6,8,9,10,11-hexahydro-7H-5,9:7,11-dimethanobenzo[9]annulen-7-yl)amino)-2-oxoethyl)piperidin-1-yl)benzoic Acid] | – | – | 9.15 | 60% | 29% | no cytotoxicity | indistinguishable from control levels | indistinguishable from control levels
O=C(NC12CC3CC(F)(CC(C1)c1ccccc13)C2)N[C@H]1CC[C@H](Oc2ccc(C(=O)O)cc2)CC1 [11b] | 77% | 36% | – | – | – | – | – | –
CC12CC3CC(NC(=O)N[C@H]4CC[C@H](Oc5ccc(C(=O)O)cc5)CC4)(CC(C1)c1ccccc13)C2 [11a] | 70% | 10% | – | – | – | – | – | –
